This is an account of results in publication PMC4940876, “Post-paralysis tyrosine kinase inhibition with masitinib abrogates neuroinflammation and slows disease progression in inherited amyotrophic lateral sclerosis” (Journal of Neuroinflammation, 2016).

In general, IC50 refers to the concentration that inhibits the measured activity by half. High values mean lower potency, low ones higher potency.

The target in the experiment is T1, CSF-1R (colony-stimulating factor 1 receptor) (Homo sapiens, UniProt P07333).
T1 construct: gene CSF1R; CSF-1R kinase domain (AA 538–972), N-terminus 6HN-tagged, expressed in Sf21 cells
T1 sequence (P07333 538-972): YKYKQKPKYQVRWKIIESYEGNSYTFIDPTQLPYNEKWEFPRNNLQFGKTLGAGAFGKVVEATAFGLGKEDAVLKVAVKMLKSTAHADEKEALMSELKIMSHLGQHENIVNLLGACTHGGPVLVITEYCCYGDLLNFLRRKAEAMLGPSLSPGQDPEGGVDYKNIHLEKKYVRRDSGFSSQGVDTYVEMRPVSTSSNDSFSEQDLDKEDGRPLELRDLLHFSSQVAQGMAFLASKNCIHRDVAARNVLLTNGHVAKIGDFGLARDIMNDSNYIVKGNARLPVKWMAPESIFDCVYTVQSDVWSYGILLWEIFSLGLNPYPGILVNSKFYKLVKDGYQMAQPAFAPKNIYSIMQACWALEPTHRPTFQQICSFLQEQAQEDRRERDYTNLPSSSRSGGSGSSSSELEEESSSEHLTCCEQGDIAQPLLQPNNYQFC
Put plainly: HTRF KinEASE kinase assay with biotinylated poly(Glu4Tyr) peptide, […] ATP. The class given is biochemical. A general note: Time-resolved FRET reads energy transfer from a long-lived donor to a nearby acceptor.

`Cc1ccc(NC(=O)c2ccc(CN3CCN(C)CC3)cc2)cc1Nc1nc(-c2cccnc2)cs1` [masitinib]: the IC50 turned out to be 90 ± 35 nM.
